Test results published in patent US11725012B2, “Imidazo[1,5-a]pyrazine derivatives as PI3K δ inhibitors” (priority 2016, dated 2023).

What was measured:
[1] = target: recombinant PI3K (p110δ/p85α) (Homo sapiens, UniProt O00329); assay: PI3Kδ ADP-Glo kinase assay; assay type: biochemical; details: PI3Kδ Enzyme activity IC50
Method in brief: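 ADP-Glo luminescence with recombinant p110δ/p85α and lipid kinase substrate. Compound serial dilutions preincubated 0.5 hr, ATP added, reaction 1 hr at room temperature, then ATP depletion and detection steps. IC50 from a four-parameter logistic fit of residual activity.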

[2] = target: PI3K (p110β/p85α) (Homo sapiens, UniProt P42338); assay: PI3Kβ ADP-Glo kinase assay; assay type: biochemical; details: PI3Kβ Enzyme activity IC50
Chain of PI3K (p110β/p85α) (P42338 whole entry): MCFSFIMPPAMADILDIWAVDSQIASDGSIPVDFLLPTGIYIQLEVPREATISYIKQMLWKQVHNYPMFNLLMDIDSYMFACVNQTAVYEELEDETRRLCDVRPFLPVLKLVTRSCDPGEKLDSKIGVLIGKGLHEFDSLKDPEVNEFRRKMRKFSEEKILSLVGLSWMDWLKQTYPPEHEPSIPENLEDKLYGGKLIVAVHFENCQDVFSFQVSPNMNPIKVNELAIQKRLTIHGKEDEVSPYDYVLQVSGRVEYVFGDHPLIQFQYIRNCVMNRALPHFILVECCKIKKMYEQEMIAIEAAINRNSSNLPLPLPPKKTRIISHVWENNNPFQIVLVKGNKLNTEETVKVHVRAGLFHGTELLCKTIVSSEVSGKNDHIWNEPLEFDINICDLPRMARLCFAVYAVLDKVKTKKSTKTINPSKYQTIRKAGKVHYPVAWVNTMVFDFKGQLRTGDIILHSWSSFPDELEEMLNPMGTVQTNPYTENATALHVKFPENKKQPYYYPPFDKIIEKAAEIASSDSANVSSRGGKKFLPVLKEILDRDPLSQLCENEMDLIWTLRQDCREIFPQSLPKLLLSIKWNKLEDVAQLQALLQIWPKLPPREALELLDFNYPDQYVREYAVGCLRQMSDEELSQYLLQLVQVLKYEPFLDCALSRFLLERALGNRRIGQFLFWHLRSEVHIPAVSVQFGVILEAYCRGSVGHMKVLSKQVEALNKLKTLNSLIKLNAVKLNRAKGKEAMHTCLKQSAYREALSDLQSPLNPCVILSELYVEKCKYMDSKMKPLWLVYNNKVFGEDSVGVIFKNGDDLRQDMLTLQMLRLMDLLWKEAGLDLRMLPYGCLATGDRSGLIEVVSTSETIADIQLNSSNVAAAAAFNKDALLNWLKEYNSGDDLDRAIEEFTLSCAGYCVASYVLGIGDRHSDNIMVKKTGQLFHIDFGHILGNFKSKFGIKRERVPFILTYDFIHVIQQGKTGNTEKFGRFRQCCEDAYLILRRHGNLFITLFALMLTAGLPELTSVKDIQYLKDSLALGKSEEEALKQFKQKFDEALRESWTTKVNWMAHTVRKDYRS
Chain of PI3K (p110β/p85α) (P27986 whole entry partner): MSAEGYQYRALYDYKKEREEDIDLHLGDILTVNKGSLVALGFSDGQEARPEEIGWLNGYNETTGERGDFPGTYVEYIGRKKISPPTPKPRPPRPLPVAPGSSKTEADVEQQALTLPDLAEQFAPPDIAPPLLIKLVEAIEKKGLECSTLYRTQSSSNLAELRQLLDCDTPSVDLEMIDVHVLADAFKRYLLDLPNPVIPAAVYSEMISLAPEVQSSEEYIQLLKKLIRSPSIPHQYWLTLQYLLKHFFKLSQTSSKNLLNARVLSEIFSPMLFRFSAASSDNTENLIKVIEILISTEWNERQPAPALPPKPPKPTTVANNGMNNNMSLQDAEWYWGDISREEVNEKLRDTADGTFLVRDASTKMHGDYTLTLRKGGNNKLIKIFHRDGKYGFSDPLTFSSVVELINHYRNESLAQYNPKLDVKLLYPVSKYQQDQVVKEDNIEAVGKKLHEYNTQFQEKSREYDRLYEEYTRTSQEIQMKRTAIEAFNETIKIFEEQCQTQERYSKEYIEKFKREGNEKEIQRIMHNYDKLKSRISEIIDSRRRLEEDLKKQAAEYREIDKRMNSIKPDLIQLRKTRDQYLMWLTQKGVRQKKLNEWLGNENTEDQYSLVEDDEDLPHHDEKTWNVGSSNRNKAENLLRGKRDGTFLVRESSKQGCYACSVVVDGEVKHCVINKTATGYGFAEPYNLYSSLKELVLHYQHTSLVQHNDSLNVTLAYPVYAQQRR

[3] = target: PI3K (p110γ) (Homo sapiens, UniProt P48736); assay: PI3Kγ ADP-Glo kinase assay; assay type: biochemical; details: PI3Kγ Enzyme activity IC50
Chain of PI3K (p110γ) (P48736 whole entry): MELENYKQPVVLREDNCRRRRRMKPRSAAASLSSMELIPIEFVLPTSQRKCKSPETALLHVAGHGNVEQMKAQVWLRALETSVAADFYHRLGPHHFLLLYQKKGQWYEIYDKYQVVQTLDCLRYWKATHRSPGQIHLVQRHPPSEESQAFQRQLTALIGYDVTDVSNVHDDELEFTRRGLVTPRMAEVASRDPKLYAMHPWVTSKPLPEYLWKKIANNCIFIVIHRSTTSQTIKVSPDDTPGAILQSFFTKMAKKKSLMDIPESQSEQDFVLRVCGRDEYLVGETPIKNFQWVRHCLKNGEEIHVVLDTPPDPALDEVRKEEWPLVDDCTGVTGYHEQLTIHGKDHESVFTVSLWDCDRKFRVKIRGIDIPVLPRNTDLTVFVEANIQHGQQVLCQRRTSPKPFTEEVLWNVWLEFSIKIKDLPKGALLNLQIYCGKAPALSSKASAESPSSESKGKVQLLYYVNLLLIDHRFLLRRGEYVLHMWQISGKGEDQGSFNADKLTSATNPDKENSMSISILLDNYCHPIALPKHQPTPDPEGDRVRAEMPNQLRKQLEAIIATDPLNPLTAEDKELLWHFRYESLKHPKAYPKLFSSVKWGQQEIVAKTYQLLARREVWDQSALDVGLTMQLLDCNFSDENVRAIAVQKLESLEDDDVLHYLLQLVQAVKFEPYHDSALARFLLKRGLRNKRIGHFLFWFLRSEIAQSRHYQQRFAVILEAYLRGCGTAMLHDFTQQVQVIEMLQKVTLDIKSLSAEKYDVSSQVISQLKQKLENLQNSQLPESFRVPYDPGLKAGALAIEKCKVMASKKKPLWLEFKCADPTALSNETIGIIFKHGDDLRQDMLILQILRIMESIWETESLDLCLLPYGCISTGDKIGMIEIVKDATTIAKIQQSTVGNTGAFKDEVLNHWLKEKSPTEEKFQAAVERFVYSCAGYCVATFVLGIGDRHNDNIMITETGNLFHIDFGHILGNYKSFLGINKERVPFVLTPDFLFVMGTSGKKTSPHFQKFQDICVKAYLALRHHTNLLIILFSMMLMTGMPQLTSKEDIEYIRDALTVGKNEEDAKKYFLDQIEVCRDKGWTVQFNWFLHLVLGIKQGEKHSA

[4] = Pharmacokinetic properties in Sprague-Dawley rats after IV and PO administration; assay type: in vivo; details: male, plasma, rat; for Vd: read-out: VdSS
Procedure: III. Pharmacokinetic Properties of Compounds in Sprague-Dawley Rats after Intravenous (IV) and Oral Administrations (PO)
Dose Formulation Preparation The injection dosing solution was prepared as follows: 1.0 mg of a test compound was weighted and dissolved in 0.32 mL of dimenthyl acetamide (DMA). The solution was then further diluted by 0.36 mL of ethanol and 0.32 mL of propylene glycol. The final concentration of the test compound was 1.0 mg·mL^−1.
The oral dosing solution was prepared as follows: 5.0 mg of a test compound was weighed and dispersed in […] of 0.5% methyl cellulose (MC). The final concentration of the test compound is 1 mg·mL^−1.
The animals were housed in solid bottom polypropylene cages with sterilized bedding and receive sterilized diet and sterilized water. The room was controlled and monitored for humidity (targeted mean range 40% to 70%) and temperature (targeted mean range 18° C. to 26° C.) with 10 to 20 air changes/hour. The light cycle was maintained at 12-h light and 12-h dark, Only animals that appeared to be healthy were selected for this study based on overall health, body weight, or other relevant information.
The male Sprague-Dawley rats were fasted overnight with free access to drinking water prior to treatment. On day 1, the animals were weighed and actual dose volume for each animal was calculated using the formula below: Dose Volume (mL)=[Nominal Dose (mg·kg^−1)/Dose Concentration (mg·mL^−1)]×Animal Body Weight (kg) (1)
Three rats were given a single IV dose of 1 mg·kg^−1 via tail vein injection and other three rats were given a single oral dose of 5 mg·kg^−1. The dosing solutions were freshly prepared prior to dose administration. The actual body weights and actual volume injected were recorded accordingly. Four hours after dosing, the rats were allowed to intake food.
Blood samples ([…]) were collected at different times from the jugular vein catheter into EDTA-K2 coated tubes, Whole blood was processed by centrifugation at 3000 g for 10 min. Plasma samples were collected and kept at −80° C. freezer prior to analysis. The blood sampling time was recorded accordingly.
The dose samples of IV and PO were diluted with MeOH:H2O (4:1, v/v) to achieve the concentration of 2 μg·mL^−1, respectively. Then, 2.5 μL of the diluted samples were added with 47.5 μL blank plasma, and then were handled as the plasma sample procedure. An aliquot of 10 μL of the mixture was injected into the LC-MS/MS system.

[5] = target: recombinant PI3K (p110α/p85α) (Homo sapiens, UniProt P42336); assay: PI3Kα ADP-Glo kinase assay; assay type: biochemical; details: PI3Kα Enzyme activity IC50
Chain of recombinant PI3K (p110α/p85α) (P42336 whole entry): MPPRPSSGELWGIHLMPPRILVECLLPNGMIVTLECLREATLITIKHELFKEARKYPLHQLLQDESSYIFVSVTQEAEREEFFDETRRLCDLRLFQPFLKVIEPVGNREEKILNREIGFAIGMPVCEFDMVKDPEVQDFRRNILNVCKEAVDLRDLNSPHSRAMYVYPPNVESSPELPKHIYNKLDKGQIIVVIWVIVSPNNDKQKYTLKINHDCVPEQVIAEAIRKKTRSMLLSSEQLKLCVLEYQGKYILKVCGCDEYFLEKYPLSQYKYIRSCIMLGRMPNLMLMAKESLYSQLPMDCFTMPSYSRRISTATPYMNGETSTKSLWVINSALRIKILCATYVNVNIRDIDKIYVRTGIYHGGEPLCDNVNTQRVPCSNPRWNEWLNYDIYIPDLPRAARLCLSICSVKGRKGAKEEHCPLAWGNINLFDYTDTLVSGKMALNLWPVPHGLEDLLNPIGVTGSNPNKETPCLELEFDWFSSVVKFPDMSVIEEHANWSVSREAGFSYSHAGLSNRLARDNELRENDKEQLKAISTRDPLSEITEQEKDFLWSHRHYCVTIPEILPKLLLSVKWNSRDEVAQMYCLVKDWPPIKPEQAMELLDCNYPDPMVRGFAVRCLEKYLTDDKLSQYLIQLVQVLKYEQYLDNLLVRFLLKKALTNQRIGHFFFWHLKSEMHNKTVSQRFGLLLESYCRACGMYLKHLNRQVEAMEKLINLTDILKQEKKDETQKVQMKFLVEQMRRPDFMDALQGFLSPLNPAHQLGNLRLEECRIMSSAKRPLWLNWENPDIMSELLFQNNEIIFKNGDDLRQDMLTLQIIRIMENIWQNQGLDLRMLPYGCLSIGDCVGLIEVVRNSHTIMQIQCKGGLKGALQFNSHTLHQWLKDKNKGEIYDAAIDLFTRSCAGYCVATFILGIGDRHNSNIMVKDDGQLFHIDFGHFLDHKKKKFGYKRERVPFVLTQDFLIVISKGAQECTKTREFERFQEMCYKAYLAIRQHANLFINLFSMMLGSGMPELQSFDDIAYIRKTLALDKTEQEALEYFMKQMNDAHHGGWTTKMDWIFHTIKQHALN
Chain of recombinant PI3K (p110α/p85α) (P27986 whole entry partner): as the sequence (P27986 whole entry partner) above

[6] = Brain penetration in male C57BL/6 mice after oral administration; assay type: in vivo; details: mouse; for Kp: male, C57BL/6, brain and plasma, PO 10 mg·kg^−1, read-out: BBB (Brain/Plasma Cone. Ratio)
Procedure: IV. Brain Penetration of Compounds in Male C57BL/6 Mice after Oral Administration Dose Formulation Preparation
Approximately 4 mg of a test compound was weighed and dispersed in 0.5% methyl cellulose (MC). After that, the whole mixture were vortexed until a solution or suspension was formed. The final concentration of the test compound was 1 mg·mL^−1. The concentration of test compound in dosing formulations was determined within 85% to 115% of nominal values.
The mice were housed in solid bottom polypropylene cages with sterilized bedding. The room was controlled and monitored for humidity (targeted mean range 40% to 70%) and temperature (targeted mean range 20° to 25° C.) with 10 to 20 air changes/hour. The room was on a 12-hour light/dark cycle except when interruptions were necessitated by study activities. The mice were supplied with sterilized diet and water. All animals were examined upon receipt and were acclimated for at least 3 days. Only animals that appeared to be healthy were selected for the study based on overall health, body weight, or other relevant data as appropriate.
All procedures performed on animals were in accordance with established guidelines and reviewed and approved by an independent institutional review board.
The mice were administrated with test compound at 10 mg·kg^−1 via oral gavage, respectively. The dosing formulations were freshly prepared. The actual body weights and actual volume administered were recorded accordingly.
Three mice were sacrificed under carbon dioxide for sample collection at 1, 2 and 4 hours post dose, respectively. Blood samples (˜0.2 mL) were collected via cardiac puncture into anticoagulant tubes (coated with EDTA-Ka). The tubes were gently inverted several times to ensure mixing. Whole blood was processed for plasma by centrifugation at 5,500 rpm for 10 min. The brain was collected immediately after euthanasia. The sample collection time was recorded accordingly. After the removal of excess water, the brain was weighed and homogenized with 5× water (w/v) in an ice bath. […]

Chain of recombinant PI3K (p110δ/p85α) (O00329 whole entry): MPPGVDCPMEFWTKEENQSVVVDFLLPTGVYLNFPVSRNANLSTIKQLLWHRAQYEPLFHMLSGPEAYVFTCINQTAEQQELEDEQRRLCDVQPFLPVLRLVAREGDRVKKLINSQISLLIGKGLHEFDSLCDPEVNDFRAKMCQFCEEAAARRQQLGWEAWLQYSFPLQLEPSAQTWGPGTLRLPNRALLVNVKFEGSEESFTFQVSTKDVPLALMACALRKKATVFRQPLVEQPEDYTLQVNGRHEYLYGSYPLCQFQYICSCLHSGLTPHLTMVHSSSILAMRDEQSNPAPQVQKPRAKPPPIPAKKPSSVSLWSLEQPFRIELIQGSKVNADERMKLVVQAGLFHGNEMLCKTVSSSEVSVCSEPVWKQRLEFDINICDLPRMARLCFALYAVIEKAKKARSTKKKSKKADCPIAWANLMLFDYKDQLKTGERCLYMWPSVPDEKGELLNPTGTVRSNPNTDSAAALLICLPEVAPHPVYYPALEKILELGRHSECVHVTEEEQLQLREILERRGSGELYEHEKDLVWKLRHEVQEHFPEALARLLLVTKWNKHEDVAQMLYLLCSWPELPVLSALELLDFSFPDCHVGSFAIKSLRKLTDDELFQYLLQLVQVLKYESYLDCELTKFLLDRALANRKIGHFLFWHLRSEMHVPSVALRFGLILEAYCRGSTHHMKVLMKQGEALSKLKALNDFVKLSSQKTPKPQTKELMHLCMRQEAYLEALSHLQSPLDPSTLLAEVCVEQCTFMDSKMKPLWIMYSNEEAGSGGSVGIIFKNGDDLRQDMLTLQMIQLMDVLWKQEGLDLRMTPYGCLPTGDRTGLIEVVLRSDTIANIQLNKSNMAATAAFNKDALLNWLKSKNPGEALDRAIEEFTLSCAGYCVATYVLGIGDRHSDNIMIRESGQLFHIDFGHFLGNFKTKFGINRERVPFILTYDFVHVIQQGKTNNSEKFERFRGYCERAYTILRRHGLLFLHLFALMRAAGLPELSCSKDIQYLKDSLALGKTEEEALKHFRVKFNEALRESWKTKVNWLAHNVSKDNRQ
Chain of recombinant PI3K (p110δ/p85α) (P27986 whole entry partner): as the sequence (P27986 whole entry partner) above

CC(C)Oc1c([C@H](C)c2nc(Cl)c3c(N)nccn23)cc(Cl)c(F)c1-c1ccc(C(=O)N(C)C)nc1 [Compound 16A]
IC50 [1]: 0.71 nM
IC50 [2]: 870 nM
IC50 [3]: 440 nM
AUC(0-inf) ([4]; 1 mg/kg, IV (1 mpk)): 1060 ng·h/mL
clearance ([4]; 1 mg/kg, IV (1 mpk)): 16 mL/min/kg
half-life ([4]; 1 mg/kg, IV (1 mpk)): 1.3 h
Vd ([4]; 1 mg/kg, IV (1 mpk)): 1.8 L/kg
AUC(0-inf) ([4]; 5 mg/kg, PO (5 mpk)): 2190 ng·h/mL
Cmax ([4]; 5 mg/kg, PO (5 mpk)): 496 ng/mL
Tmax ([4]; 5 mg/kg, PO (5 mpk)): 1 h
bioavailability ([4]; 5 mg/kg, PO (5 mpk)): 41.1%
half-life ([4]; 5 mg/kg, PO (5 mpk)): 1.9 h
IC50 [5]: 790 nM
Kp [6]: 0.05

CC(C)Oc1c([C@H](C)c2nc(Cl)c3c(N)nccn23)cc(Cl)c(F)c1-c1ccc(C(F)(F)F)nc1 [Compound 40A]
IC50 [1]: 1 nM
IC50 [2]: 6800 nM
IC50 [3]: 3800 nM
AUC(0-inf) ([4]; 1 mg/kg, IV (1 mpk)): 768 ng·h/mL
clearance ([4]; 1 mg/kg, IV (1 mpk)): 22.2 mL/min/kg
half-life ([4]; 1 mg/kg, IV (1 mpk)): 9 h
Vd ([4]; 1 mg/kg, IV (1 mpk)): 14.8 L/kg
AUC(0-inf) ([4]; 5 mg/kg, PO (5 mpk)): 1720 ng·h/mL
Cmax ([4]; 5 mg/kg, PO (5 mpk)): 179 ng/mL
Tmax ([4]; 5 mg/kg, PO (5 mpk)): 2.7 h
bioavailability ([4]; 5 mg/kg, PO (5 mpk)): 51%
half-life ([4]; 5 mg/kg, PO (5 mpk)): 6.6 h
IC50 [5]: 33000 nM
Kp [6]: 0.29
Brain/Plasma Conc. Ratio (in words) ([6]; PO): much better Brain/Plasma Conc, Ratio
